Laboratory results as given in PMC12469314, “Computational and Experimental Insights into Tyrosinase and Antioxidant Activities of Resveratrol and Its Derivatives: Molecular Docking, Molecular Dynamics Simulation, DFT Calculation, and In Vitro Evaluation” (International Journal of Molecular Sciences, 2025).

Experiments:
[1] = DPPH radical scavenging activity; conditions: 30 min, 517 nm, mean ± SD
Method: The DPPH radical scavenging activity was determined according to the method in [45] with slight modifications. A 20 µL sample was added to a 96-well plate, followed by 0.1 mM DPPH dissolved in absolute ethanol. The mixtures were incubated in the dark at room temperature for 30 min, and their absorbance was measured at 517 nm with 3 replications using a UV spectrophotometer. The radical scavenging activity was calculated as follows:%radical scavenging = [(Acontrol − Asample)/Acontrol] × 100 where Acontrol = absorbance of the control, which contains an equal volume of DPPH and absolute ethanol, and Asample = absorbance of the sample or ascorbic acid standard, which contains an equal volume of DPPH and the sample solution. The percentage inhibition of the test solutions was calculated and plotted against their concentrations, along with the L-ascorbic acid standard, to generate a linear equation. The concentration required for IC50 was determined via interpolation from the linear equation.

[2] = Ferric reducing antioxidant power (FRAP); conditions: 595 nm, FeSO4 calibration, mean ± SD
Method: A FRAP assay was performed based on the method in [46] with slight modifications. The FRAP solution reagent was prepared by combining 0.3 M acetate buffer, 10 mM TPTZ solution in 40 mM HCl, and 20 mM ferric chloride (FeCl3) solution in a 10:1:1 ratio. Next, 20 µL of the sample was added to 280 µL of the FRAP reagent, and the mixture was thoroughly mixed. Absorbance was then measured at 595 nm using a UV spectrophotometer. A calibration curve was constructed with ferrous sulfate (FeSO4), and the results were expressed as the equivalent of FeSO4/g.

mushroom tyrosinase = molecular target: T1, mushroom tyrosinase (Agaricus bisporus, UniProt C7FF04); assay: Anti-mushroom tyrosinase activity (DOPA-chrome method); type: biochemical
T1 construct: purchased Sigma-Aldrich
Method: The inhibitory activity of the samples against mushroom tyrosinase was assessed using the DOPA-chrome method with some modifications. […] The assay was performed in a 96-well plate, in which the buffer was added to all wells, followed by 10% DMSO (50 μL) in the control and blank control wells. […] Next, 50 μL of tyrosinase solution was added to all wells except for the blank control and blank sample, followed by incubation at room temperature for 10 min. Subsequently, 50 μL of L-Dopa solution was added to all wells and incubated for 10 min at room temperature. Finally, the absorbance was measured at 492 nm using a UV spectrophotometer. […] All experiments were performed in triplicate.

[3] = ABTS radical scavenging activity; conditions: 7 min at 37 °C, 734 nm, mean ± SD
Method: ABTS radical scavenging activity was measured using the method described by Thaipong et al. (2006), with minor modifications. The ABTS solution was prepared by dissolving 7 mM ABTS and mixing it with potassium persulfate in a 2:1 ratio. The mixture was allowed to react in the dark for 12–16 h. Before use, the ABTS radical cation was diluted with ultrapure water to achieve an initial absorbance of around 0.70 ± 0.02 at 734 nm, as measured using a UV spectrophotometer. Sample solutions at various concentrations were then prepared by mixing 50 μL of each sample with 100 μL of the ABTS solution. The mixture was incubated in the dark for 7 min at 37 °C. After incubation, absorbance was measured at 734 nm. All tests were performed in triplicate, and the percentage of radical scavenging activity was calculated.

T1 sequence (C7FF04 1-392): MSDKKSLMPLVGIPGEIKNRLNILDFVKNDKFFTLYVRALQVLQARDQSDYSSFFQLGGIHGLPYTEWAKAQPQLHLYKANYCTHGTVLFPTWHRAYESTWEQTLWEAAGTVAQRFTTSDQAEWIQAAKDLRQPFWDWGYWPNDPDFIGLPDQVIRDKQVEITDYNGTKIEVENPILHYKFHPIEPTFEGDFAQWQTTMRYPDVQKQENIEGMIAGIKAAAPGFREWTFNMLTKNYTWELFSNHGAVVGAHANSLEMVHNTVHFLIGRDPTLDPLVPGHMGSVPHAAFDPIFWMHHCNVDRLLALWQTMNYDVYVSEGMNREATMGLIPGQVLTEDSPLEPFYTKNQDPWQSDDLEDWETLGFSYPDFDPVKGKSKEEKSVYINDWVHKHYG

Row | SMILES | IC50 [1] [µM] | FRAP reducing power [2] | IC50 (mushroom tyrosinase) [µM] | IC50 [3] [µM]
1 | Oc1ccc(CCc2cc(O)cc(O)c2)cc1 [Dre, Dihydroresveratrol] | > 1500 | very low reducing power | 335 ± 7.98 | 
2 | CC(=O)Oc1ccc(/C=C/c2cc(OC(C)=O)cc(OC(C)=O)c2)cc1 [Are, Acetyl-resveratrol] | > 1500 | very low reducing power | 396 ± 5.74 | 
3 | O=C1O[C@H]([C@@H](O)CO)C(O)=C1O [L-ascorbic acid, reference compound] |  |  |  | 52.41 ± 0.06
4 | Oc1cc(O)cc(/C=C/c2ccc(O)cc2O)c1 [Ore, Oxyresveratrol] | 38.1 ± 1.12 | 664.99 ± 42.62 μmol Fe(II)/g | 4.02 ± 0.46 | 26.2 ± 0.57
5 | COc1ccc(/C=C\c2cc(OC)cc(OC)c2)cc1 [Cre, Cis-trismethoxy resveratrol] | > 1500 | very low reducing power | 532 ± 3.59 | 
6 | Oc1ccc(/C=C/c2cc(O)cc(O)c2)cc1 [Re, 3,4′,5-trihydroxy-trans-stilbene] |  |  | 517 ± 7.4 | 
